Measured values: patent US6150359A, “Naphthyridinones for inhibiting protein tyrosine kinase and cell cycle kinase mediated cellular proliferation” (Warner-Lambert Company, priority 2000, dated 2000)

Assays:
HCT-8 cells = assay: Human Colon Carcinoma Growth Delay Assay, HCT-8; type: cell-based; details: 72 h, HCT-8, 3 days
Procedure: (§1) Human Colon Carcinoma Growth Delay Assay. Human colon carcinoma cells are seeded into 96-well tissue culture plates in a final volume of 180 μL of 10% fetal bovine serum containing growth media and allowed to incubate overnight (37° C., 5% CO2, 95% air). Cells of the SW-620 cell line are seeded at 1.0-1.5×10^4 cells per well. Cells of the HCT-8 and HT-29 cell lines are seeded at 2-4×10^3 cells per well. Serially diluted drug solutions are prepared in growth medium at 10 times concentration; 20 μL of these solutions are added to duplicate wells and incubated with the cells for 3 days in a cell culture incubator. At the end of the incubation period, cells are fixed with 100 μL per well of 10% trichloroacetic acid after removing the drug/culture medium. The plates are washed five times with tap water and stained with 100 μL per well of 0.075% sulfrhodamine B in 1% acetic acid for 10 minutes. The plates are rinsed four times and allowed to air dry. The stain in the wells are solubilized by the addition of 10 mM unbuffered Tris base and the absorbance read using a microtiter plate optical reader. Inhibition of cell growth is calculated from absorbance data of the treated cells compared to untreated control cells.

Protein kinase C (PKC) = Protein kinase C (PKC) assay; type: biochemical; details: rat brain preparation
Procedure: Other Kinases. c-Src kinase is purified from baculovirus infected insect cell lysates using an antipeptide monoclonal antibody directed against the N-terminal 2-17 amino acids as described previously by Fry, et al., Anticancer Drug Design, 1994;9:331-351. Protein kinase C (PKC.) is obtained as a rat brain preparation from Promega.
(§2) Other Kinases. An assay using the intracellular kinase domains of insulin receptor (INSr) is performed as described for the EGF receptor except that 10 mM manganese chloride is included in the reaction. The PKC assay is performed as previously described by Martiny-Baron, et al., J. Biol. Chem., 1993;268:9194-9197.

insulin receptor (INSr) = biological target: T1, insulin receptor (INSr) (Homo sapiens, UniProt P06213); assay: Insulin receptor (INSr) kinase assay; type: biochemical; details: 10 mM manganese chloride
T1 construct: An assay using the intracellular kinase domains of insulin receptor (INSr)
T1 sequence (P06213 1023-1298 limits assumed, species assumed): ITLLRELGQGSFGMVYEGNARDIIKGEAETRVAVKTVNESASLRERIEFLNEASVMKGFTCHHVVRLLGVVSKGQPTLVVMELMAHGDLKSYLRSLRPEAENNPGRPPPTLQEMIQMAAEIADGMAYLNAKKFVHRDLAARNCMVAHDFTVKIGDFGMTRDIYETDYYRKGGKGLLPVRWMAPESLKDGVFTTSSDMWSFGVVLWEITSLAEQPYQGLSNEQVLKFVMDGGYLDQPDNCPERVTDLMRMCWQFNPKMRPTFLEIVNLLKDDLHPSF
Procedure: EGFr. Enzyme assays for IC50 determinations are performed in 96-well filter plates (Millipore MADVN6550). The total volume is 0.1 mL containing 20 mM Hepes, pH 7.4, 50 μM sodium vanadate, 40 mM magnesium chloride, 10 μM ATP containing 0.5 μCi of [^32 P]ATP, 20 μg of polyglutamic acid/tyrosine (Sigma Chemical Co., St. Louis, Mo.), 10 ng of EGF receptor tyrosine kinase and appropriate dilutions of inhibitor. All components except the ATP are added to the well, and the plate is incubated with shaking for 10 minutes at 25° C. The reaction is started by adding [^32 P]ATP, and the plate is incubated at 25° C. for 10 minutes. The reaction is terminated by addition of 0.1 mL of 20% trichloroacetic acid (TCA). The plate is kept at 4° C. for at least 15 minutes to allow the substrate to precipitate. The wells are then washed five times with 0.2 mL of 10% TCA, and ^32 P incorporation is determined with a Wallac beta plate counter.
as §2

HT-29 cells [1] = assay: Human Colon Carcinoma Growth Delay Assay, HT-29; type: cell-based; details: 72 h, HT-29, 3 days
Procedure: as §1

[2] = biological target: T2, PDGFr (mouse PDGF-β receptor tyrosine kinase) (Mus musculus, UniProt P05622); assay: PDGFr tyrosine kinase assay, 32P incorporation into glutamate-tyrosine copolymer; type: biochemical; details: 50 μM ATP
T2 construct: PCR primers are designed to amplify a fragment of DNA that codes for the intracellular tyrosine kinase domain; made in house; host or cells: Sf9 insect cells (baculovirus), cell lysate
T2 sequence (P05622 599-961 limits assumed): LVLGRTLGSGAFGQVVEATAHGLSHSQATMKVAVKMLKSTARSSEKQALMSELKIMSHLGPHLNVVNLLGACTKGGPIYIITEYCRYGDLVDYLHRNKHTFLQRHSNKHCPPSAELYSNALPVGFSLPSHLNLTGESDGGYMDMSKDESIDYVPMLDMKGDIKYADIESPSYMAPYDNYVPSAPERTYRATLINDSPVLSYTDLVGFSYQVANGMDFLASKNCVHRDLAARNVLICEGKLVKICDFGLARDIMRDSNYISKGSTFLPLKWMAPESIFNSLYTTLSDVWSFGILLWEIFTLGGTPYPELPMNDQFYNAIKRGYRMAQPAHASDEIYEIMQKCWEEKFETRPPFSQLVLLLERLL
Procedure: Platelet Derived Growth Factor Receptor (PDGFr) and Fibroblast Growth Factor Receptor (FGFr). Full length cDNAs for the mouse PDGF-β and human FGF-1 (flg) receptor tyrosine kinases were obtained from J. Escobedo and are prepared as described in J. Biol. Chem., 1991;262:1482-1487. PCR primers are designed to amplify a fragment of DNA that codes for the intracellular tyrosine kinase domain. The fragment is melded into a baculovirus vector, cotransfected with AcMNPV DNA, and the recombinant virus isolated. SF9 insect cells are infected with the virus to overexpress the protein, and the cell lysate is used for the assay.
PDGFr and FGFr. […] Briefly, to each well is added 82.5 μL of incubation buffer containing 25 mM Hepes (pH 7.0), 150 mM NaCl, 0.1% Triton X-100, 0.2 mM PMSF, 0.2 mM sodium vanadate, 10 mM manganese chloride, and 750 μg/mL of poly (4:1) glutamate-tyrosine followed by 2.5 μL of inhibitor and 5 μL of enzyme lysate (7.5 μg/μL FGFR-TK or 6.0 μg/μL PDGFR-TK) to initiate the reaction. Following a 10 minute incubation at 25° C., 10 μL of [γ^32 P]ATP (0.4 μCi plus 50 μM ATP) is added to each well, and samples are incubated for an additional 10 minutes at 25° C. The reaction is terminated by the addition of 100 μL of 30% trichloroacetic acid (TCA) containing 20 mM sodium pyrophosphate and precipitation of material onto glass fiber filter mats (Wallac). […] Nonspecific activity is defined as radioactivity retained on the filters following incubation of samples with buffer alone; (no enzyme). Specific enzymatic activity is defined as total activity (enzyme plus buffer) minus nonspecific activity.

HT-29 cells [3] = assay: Human Colon Carcinoma Clonogenic Assay, HT-29; type: cell-based; details: HT-29, 2 days with drug, colonies after approximately 2 weeks
Procedure: Human Colon Carcinoma Clonozenic Assay. Human colon carcinoma cells are seeded into 6 well plates in volumes of 3 mL and allowed to incubate overnight (37° C., 5% CO2, 95% air). SW-620 cells are seeded at 7×10^5 per well; HCT-8 cells are seeded at 5×10^5 per well; HT-29 cells are seeded at 4×10^5 cells per well. Serially diluted drugs are prepared at 200 times the final concentration, and 15 μL are added to each of duplicate wells. Cells are incubated with drug for 2 days, rinsed once with 1 mL of trypsin+EDTA, and then trypsinized with the same trypsin solution. After trituration and centrifugation at 750×g for 3 minutes, the cells are suspended in serum-free growth medium and counted using an electronic particle counter. An agarose mixture appropriate for the cloning of each cell line is made using 10% fetal bovine serum in growth medium (SW-620-0.35% agarose, HCT-8 and HT-29-0.4% agarose). […] One; milliliter of each of these cell suspensions is added to duplicate wells of 6 well plates previously prepared with 10% serum/growth medium/1% agarose plugs. The cells in these plates are incubated for approximately 2 weeks in the incubator and stained with 1 mL per well of 1 mg/mL iodonitrotetrazolium violet stain. The visible colonies are counted with an electronic optical colony counter and the clonogenicity of treated cells calculated in comparison to untreated control cells.

SW-620 cells = assay: Human Colon Carcinoma Growth Delay Assay, SW-620; type: cell-based; details: 72 h, SW-620, 3 days
Procedure: as §1

Compound	IC50 (HCT-8 cells) [µM]	IC50 (Protein kinase C (PKC)) [µM]	IC50 (insulin receptor (INSr)) [µM]	IC50 (HT-29 cells [1]) [µM]	IC50 [2] [µM]	IC50 (HT-29 cells [3]) [µM]	IC50 (SW-620 cells) [µM]
CCN(CC)CCCCNc1cc2c(cn1)cc(-c1c(Cl)cccc1Cl)c(=O)n2C [Example F, 3-(2,6-dichlorophenyl)-7-[4-(diethylamino)butylamino]-1-methyl-1H-[1,6]naphthyridin-2-one]	2.3	> 50	> 50	1.5	0.42	> 5	7.2
CN1CCN(CCCNc2cc3c(cn2)cc(-c2c(Cl)cccc2Cl)c(=O)n3C)CC1 [Example H, 3-(2,6-dichlorophenyl)-1-methyl-7-[3-(4-methylpiperazin-1-yl)propylamino]-1H-[1,6]naphthyridin-2-one]	2.8	< 50	> 50	2.2	0.89	> 5	5.2
CCN(CC)CCOc1ccc(Nc2cc3c(cn2)cc(-c2c(Cl)cccc2Cl)c(=O)n3C)cc1 [Example P, 3-(2,6-dichlorophenyl)-7-[(4-(2-(diethylamino)ethoxy)phenyl)amino]-1-methyl-1H-[1,6]naphthyridin-2-one]	2.8	> 50	> 50	0.8	0.09	> 5	6.7
CN1CCN(CCOc2ccc(Nc3cc4c(cn3)cc(-c3c(Cl)cccc3Cl)c(=O)n4C)cc2)CC1 [Example S, 3-(2,6-dichlorophenyl)-1-methyl-7-[(4-(2-(4-methylpiperazin-1-yl)ethoxy)phenyl)amino]-1H-[1,6]naphthyridin-2-one]	5.2			0.9	0.34		6.8
